Where “and” joins values, the source holds several entries; their conditions need not be identical. Identical values can stand only once. Like-named read-outs stand apart in the source and are kept apart here.
Experiments:
[1] = test system: Ishikawa uterine cells; experiment: Ishikawa cell alkaline phosphatase test procedure; format: cell-based, human; conditions: for EC50: reference standards, read-out: ED50, estrogenic activity by the alkaline phosphatase method; for Alkaline phosphatase activity, percent of response related to 1 nM 17β-estradiol: 48 h
Method: Ishikawa Cell Alkaline Phosphatase Test Procedure
Cell Maintenance and Treatment
Ishikawa cells were maintained in DMEM/F12 (50%:50%) containing phenol red+10% fetal bovine serum and the medium was supplemented with 2 mM Glutamax, 1% Pen/Strap and 1 mM sodium pyruvate. Five days prior to the beginning of each evaluation (treatment of cells) the medium was changed to phenol red-free DMEM/F12+10% dextran coated charcoal stripped serum. On the day before treatment, cells were harvested using 0.5% trypsin/EDTA and plated at a density of 5×10^4 cells/well in 96-well tissue culture plates. […] Cells were treated for 48 h prior to assay. […] Sample population for at each dose was n=8.
Alkaline Phosphatase Test Procedure
At the end of 48 h the media was aspirated and cells were washed three times with phosphate buffered saline (PBS); 50 μL of lysis buffer (0.1 M Tris-HCl, pH 9.8, 0.2% Triton X-100) was added to each well. Plates were placed at −80° C. for a minimum of 15 minutes. Plates were thawed at 37° C. followed by the addition of 150 μL of 0.1 M Tris-HCl, pH 9.8, containing 4 mM para-nitrophenylphosphate (pNPP) to each well (final concentration, 3 mM pNPP).
Absorbance and slope calculations were made using the KineticCalc Application program (Bio-Tek Instruments, Inc., Winooski, Vt.). Results are expressed as the mean +/−S.D. of the rate of enzyme reaction (slope) averaged over the linear portion of the kinetic reaction curve (optical density readings every 5 minutes for 30 minutes absorbance reading).
The four compounds were used as reference standards:
A description of these methods is described by Holinka, C. F., Hata, H., Kuramoto, H. and Gurpide, E. (1986) Effects of steroid hormones and antisteroids on alkaline phosphatase activity in human endometrial cancer cells (Ishikawa Line). Cancer Research, 46:2771-2774, and by Littlefield, B. A., Gurpide, E., Markiewicz, L., McKinley, B. and Hochberg, R. B. (1990) A simple and sensitive microtiter plate estrogen bioassay based on stimulation alkaline phosphatase in Ishikawa cells; Estrogen action of D5 adrenal steroids. Endocrinology, 6:2757-2762.

[2] = test system: rat uterus; experiment: Rat uterotrophic/antiuterotrophic test procedure; format: in vivo; conditions: 1 ug 17β-estradiol, daily ip, 4-day immature rat
Method: Rat Uterotrophic/Antiuterotrophic Test Procedure
The estrogenic and antiestrogenic properties of the compounds were determined in a 4-day immature rat uterotrophic assay (as described previously by L. J. Black and R. L. Goode, Life Sciences, 26, 1453 (1980)). Immature Sprague-Dawley rats (female, 18 days old) were tested in groups of six. […] On day 4 the animals were sacrificed by CO2 asphyxiation and their uteri were removed and stripped of excess lipid, any fluid removed and the wet weight determined. A small section of one horn was submitted for histology and the remainder used to isolate total RNA in order to evaluate complement component 3 gene expression.
Representative compounds of this invention were evaluated in the rat uterotrophic/antiuterotrophic assay to determine their in vivo effects on the rat uterus.

[3] = biological target: T1, human estrogen receptor (Homo sapiens, UniProt P03372); experiment: In vitro estrogen receptor binding test procedure ([3H]-17β-estradiol competition); conditions: for Receptor IC50: displacement of [3H]17β-estradiol, CHO cell cytosol ER preparation; for Competition for the human estrogen receptor: in words, compounds with 17β-acetate
T1 construct: expressed in transfected cells; host or cells: Chinese Hamster ovary (CHO) cells; ribosome-free cytosol
T1 sequence (P03372 1-595): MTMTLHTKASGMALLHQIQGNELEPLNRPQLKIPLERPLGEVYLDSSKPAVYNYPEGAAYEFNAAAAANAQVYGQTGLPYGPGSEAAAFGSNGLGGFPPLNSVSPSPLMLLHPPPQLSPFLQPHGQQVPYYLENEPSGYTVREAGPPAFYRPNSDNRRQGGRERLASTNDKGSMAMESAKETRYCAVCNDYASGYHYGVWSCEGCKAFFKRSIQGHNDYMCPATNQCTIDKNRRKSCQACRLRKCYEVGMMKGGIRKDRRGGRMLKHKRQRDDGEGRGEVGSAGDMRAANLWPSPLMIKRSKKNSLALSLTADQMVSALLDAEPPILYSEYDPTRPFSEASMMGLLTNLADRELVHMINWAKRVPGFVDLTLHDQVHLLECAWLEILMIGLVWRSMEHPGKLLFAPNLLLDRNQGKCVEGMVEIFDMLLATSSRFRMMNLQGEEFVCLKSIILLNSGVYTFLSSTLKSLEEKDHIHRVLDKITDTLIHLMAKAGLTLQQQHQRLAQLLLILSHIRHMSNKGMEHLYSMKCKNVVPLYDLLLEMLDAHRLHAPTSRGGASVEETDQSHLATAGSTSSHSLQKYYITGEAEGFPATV
Method: In vitro Estrogen Receptor Binding Test Procedure
Chinese Hamster ovary (CHO) cells overexpressing the estrogen receptor were grown in […] dishes in DMEM+10% dextran coated charcoal, stripped fetal bovine serum. The plates were washed twice with PBS and once with 10 mM Tris-HCl, pH 7.4, 1 mM EDTA. Cells were harvested by scraping the surface and then the cell suspension was placed on ice. Cells were disrupted with a hand-held motorized tissue grinder using two, 10-second bursts. The crude preparation was centrifuged at 12,000 g for 20 minutes followed by a 60 minute spin at 100,000 G to produce a ribosome free cytosol. The cytosol was then frozen and stored at −80° C. Protein concentration of the cytosol was estimated using the BCA assay with reference standard protein.
Binding Test Procedure Conditions
100 uG/100 uL of the receptor preparation was aliquoted per well. […] The plate was incubated at room temperature for 2.5 h. At the end of this incubation period 150 uL of ice-cold dextran coated charcoal (5% activated charcoal coated with 0.05% 69K dextran) was added to each well and the plate was immediately centrifuged at 99 g for 5 minutes at 4° C. 200 uL of the supernatant solution was then removed for scintillation counting. Samples were counted to 2% or 10 minutes, whichever occurs first. […] Also, wells containing radioactivity but no cytosol were processed with charcoal to estimate unremovable DPM of [^3H] […] 96-well plates were used because they have proven to bind the least amount of estradiol.
Counts per minute (CPM) of radioactivity were automatically converted to disintegrated per minute (DPM) by the Beckman LS 7500 Scintillation Counter using a set of quenched standards to generate a H# for each sample. To calculate the % of estradiol binding in the presence of 100 or 500 fold competitor the following formula was applied:
((DPM sample−DPM not removed by charcoal/(DPM estradiol−DPM not removed by charcoal))×100%=% of estradiol binding
For the generation of IC50 curves, % binding is plotted vs compound. […] Values are reported as IC50 values. […] For a description of these methods, see Hulme, E. C., ed. 1992. Receptor-Ligand Interactions: A Practical Approach. IRL Press, New York.(see especially chapter 8).
Compounds were tested for their ability to displace estradiol in a human ER-receptor preparation as described above.

[4] = 1 uM compound + 1 nM E2, antagonist mode

Compound	Alkaline phosphatase activity, percent of response related to 1 nM 17β-estradiol ([1]; 0.01 uM compound, agonist mode) [%]	Alkaline phosphatase activity, percent of response related to 1 nM 17β-estradiol ([1]; 0.1 uM compound, agonist mode) [%]	Alkaline phosphatase activity, percent of response related to 1 nM 17β-estradiol [1, 4] [%]	Alkaline phosphatase activity, percent of response related to 1 nM 17β-estradiol ([1]; 1 uM compound, agonist mode) [%]	also measured
C[C@]12CC[C@@H]3c4ccc(O)cc4CC[C@H]3[C@@H]1CC[C@H]2O [17α-estradiol, reference compound]					EC50 [1]: 1.42 nM
C[C@]12CC[C@@H]3c4ccc(O)cc4CC[C@H]3[C@@H]1CC[C@@H]2O [17β-estradiol, reference compound]					Uterine wet weight [2]: 87.6 mg and 82.1 mg and 92.6 mg and 83.8 mg and 94.6 mg; EC50 ([1]; Homo sapiens, Ishikawa): 0.03 nM
C[C@]12CC[C@@H]3c4ccc(O)cc4CC[C@H]3[C@@H]1C[C@@H](O)[C@@H]2O [estriol, reference compound]					EC50 ([1]; Homo sapiens, Ishikawa): 0.13 nM
COc1ccc2c(c1)CC(Sc1ccc(OCCN3CCCCC3)cc1)C1C2CCC2(C)C(OC(C)=O)CCC12 (stereo not drawn) [Example 14, (7α,17β) 3-Methoxy-7-{4-[2-(piperdin-1-yl)]ethoxyphenyl}thio-estra-1,3,5(10)-triene-17-ol-17-acetate]	2	3	105	39	Receptor IC50 [3]: No Binding; Competition for the human estrogen receptor [3]: competed less effectively
COC(=O)C=Cc1ccc(S[C@@H]2Cc3cc(O)ccc3[C@H]3CC[C@]4(C)[C@@H](OC(C)=O)CC[C@H]4[C@@H]32)cc1 [Example 9, (7α,17β) 7-{4-[2-(Methoxycarbonyl)-ethenyl]phenyl}thio-estra-1,3,5(10)-triene-3,17-diol-17-acetate]	1	33	59	61	Receptor IC50 [3]: No Binding; Competition for the human estrogen receptor [3]: competed less effectively
CN(C)C(=O)/C=C/c1ccc(S[C@@H]2Cc3cc(O)ccc3[C@H]3CC[C@]4(C)[C@@H](O)CC[C@H]4[C@@H]32)cc1 [Example 10, (7α,17β) 7-{4-[(E)-2-(N,N-Dimethylcarbamoyl)-ethenyl]phenyl}thio-estra-1,3,5(10)-triene-3,17-diol]	0	12	57	28	
C[C@]12CC[C@@H]3c4ccc(O)cc4C[C@@H](Sc4ccc(C=CC(=O)O)cc4)[C@H]3[C@@H]1CC[C@@H]2O [Example 11, (7α,17β) 7-{4-[2-(Carboxy)-ethenyl]phenyl}thio-estra-1,3,5(10)-triene-3,17-diol]	0	23	50	21	IC50 [3]: 1500 nM
CC(=O)O[C@H]1CC[C@H]2[C@@H]3[C@H](Sc4ccc(Br)cc4)C(=O)c4cc(O)ccc4[C@H]3CC[C@]12C [Example 5, (7α,17β) 17-Acetoxy-7-(4-bromophenyl)thio-3-hydroxy-estra-1,3,5(10)-trien-6-one]	58	108	106	104	Behaviour in the uterine cell line (agonist/antagonist) ([1]; in words, from Table 2): fully efficacious agonists
CC(=O)O[C@H]1CC[C@H]2[C@@H]3[C@H](Sc4ccc(O)cc4)C(=O)c4cc(O)ccc4[C@H]3CC[C@]12C [Example 1, (7α,17β) 17-Acetoxy-3-hydroxy-7-(4-hydroxyphenyl)thio-estra-1,3,5(10)-triene-6-one]	7	9	76	29	
C[C@]12CC[C@@H]3c4ccc(O)cc4CC[C@H]3[C@@H]1CCC2=O [estrone, reference compound]					EC50 ([1]; Homo sapiens, Ishikawa): 0.36 nM
COc1ccc2c(c1)CC(Sc1ccc(OCCN3CCCCC3)cc1)C1C2CCC2(C)C(O)CCC12 (stereo not drawn) [Example 15, (7α,17β) 3-Methoxy-7-{4-[2-(piperdin-1-yl)]ethoxyphenyl}thio-estra-1,3,5(10)-triene-17-ol]	0	0	69	22	
C[C@]12CC[C@@H]3c4ccc(O)cc4[C@@H](O)[C@@H](Sc4ccc(Br)cc4)[C@H]3[C@@H]1CC[C@@H]2O [Example 7, (6α,7α,17β) 7-(4-Bromophenyl)thio-estra-1,3,5(10)-triene-3,6,17-triol]	46	58	98	66	IC50 [3]: 800 nM
